Assay results as given in PMC12095040, “GRK5 is required for adipocyte differentiation through ERK activation” (International Journal of Obesity (2005), 2024).
pIC50: −log10 of the molar value.

Target: GRK5 (Homo sapiens, UniProt P34947)
Test: ADP-Glo luminescent kinase assay, casein substrate, […] ATP
Assay type: biochemical

Chain of GRK5 (P34947 whole entry): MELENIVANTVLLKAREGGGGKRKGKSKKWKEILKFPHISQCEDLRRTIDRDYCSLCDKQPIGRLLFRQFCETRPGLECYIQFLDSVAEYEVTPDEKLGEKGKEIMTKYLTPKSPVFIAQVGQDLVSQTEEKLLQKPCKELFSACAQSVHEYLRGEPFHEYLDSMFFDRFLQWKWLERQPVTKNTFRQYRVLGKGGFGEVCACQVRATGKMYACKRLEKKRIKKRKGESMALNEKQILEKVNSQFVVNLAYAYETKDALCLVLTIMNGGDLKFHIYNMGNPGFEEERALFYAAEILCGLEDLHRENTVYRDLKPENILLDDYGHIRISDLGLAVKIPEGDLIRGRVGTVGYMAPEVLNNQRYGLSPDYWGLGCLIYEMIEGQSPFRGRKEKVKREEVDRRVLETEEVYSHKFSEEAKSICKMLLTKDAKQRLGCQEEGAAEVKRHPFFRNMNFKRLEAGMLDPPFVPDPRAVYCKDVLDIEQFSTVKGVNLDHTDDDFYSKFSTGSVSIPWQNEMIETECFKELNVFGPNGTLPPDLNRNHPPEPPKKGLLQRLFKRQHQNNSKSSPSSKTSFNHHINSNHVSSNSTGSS

COc1cc(Nc2cc3c(cn2)nc(-c2ccco2)n3C)cc(OC)c1OC [GRK5-IN-2]
pIC50: 4.30
